# What was measured:
# Type in all cases: in vivo
# WT and α1b-AR KO mice [1] = test: Locomotor activity in circular corridor after acute drug injection; settings: for locomotor activity: i.p., different doses
# Description: FIG. 2 is a series of dose response graphs that depicts the results of locomotor response to novelty, saline, scopolamine and chloro-APB experiments in WT and α1b-AR KO mice. […] Animals were placed in the experimental apparatus for 90 minutes, received a saline injection and were replaced in the apparatus for 60 minutes. On the following day, animals were placed in the experimental apparatus for 90 minutes, they received an intraperitoneal injection of either saline or scopolamine (1 mg/kg) and their locomotor response was measured every 5 minutes for 60 minutes. FIG. 2D represents the results of locomotor response to chloro-APB; animals were placed in the experimental apparatus for 90 minutes, received a saline injection and were replaced in the apparatus for 60 minutes. On the following days, animals were placed in the experimental apparatus for 90 minutes, they received an intraperitoneal injection of chioro-APB and their locomotor response was measured every 5 minutes for 60 minutes. Several doses of chloro-APB were tested on consecutive days in a random order.
# Independent groups of animals were used for each treatment to avoid eventual behavioral sensitization (N=6-16 per group).
# (§1) Mice were introduced in a circular corridor (4.5 cm width, 17 cm external diameter) crossed by four infrared beams (1.5 cm above the base) placed at every 90° (Imetronic, Pessac, France). The locomotor activity was counted when animals interrupted two successive beams and, thus, had traveled ¼ of the circular corridor. In each session, the spontaneous activity was recorded for 90 minutes, before mice received either saline or drugs. Their activity was recorded for an additional 60 minutes or 120 minutes period. The first session was a session of habituation to the experimental procedure during which animals received saline (˜3 ml/kg, i.p.). The locomotor response to a drug administration was measured on the following day. Tests were performed between 12:00 and 6:00 p.m. in stable conditions of temperature and humidity.
# C57BL6/J mice = test: Local perfusion (reverse dialysis) of D-amphetamine in the nucleus accumbens, mice
# Description: Dialysate samples were completed to 30 μl with the mobile phase and placed into a refrigerated automatic injector (Triathlon, Spark Holland, Emmen, The Netherlands). Twenty five μl of the sample were injected every 15 minutes through a rheodyne valve in the mobile phase circuit. High-performance liquid chromatography was performed with a reverse-phase column (80×4.6 mm, 3 μM particle size, HR-80, ESA INC., Chelmsford, Mass.). Mobile phase (NaH2PO4 75 mM, EDTA 20 μM, octane sulfonic acid 2.75 mM, triethylamine 0.7 mM, acetonitrile 6%, methanol 6%, and pH 5.2) was delivered at 0.7 ml/min by an ESA-580 pump. […]
# WT and α1b-AR KO mice [2] = test: Locomotor sensitization induced by repeated drug administration
# Description: Animals spent 90 minutes in the experimental apparatus, received a saline injection and were replaced in the apparatus for 60 minutes. […] Four similar sessions took place every other day. The sixth session took place after a 10-day withdrawal. Locomotor responses measured during the first hour following each injection are presented in function of the number of injections and slope values. N=6 to 15 animals per group.
# N=6 to 12 animals per group. […] FIG. 6B represents the time course of the locomotor responses measured every 5 minutes.
# as §1
# Data were analyzed with Student's t-test or analysis of variance. For behavioral sensitization experiments, correlation between the number of drug injections and the amplitude of the locomotor responses was analyzed with linear regression and the influence of genotype on this correlation with an analysis of covariance. Genotype and prazosin treatments were between-subjects factors. […] Differences were considered significant when p<0.05.
# The rate of sensitization was evaluated by determining the slope of the “number of injections/response” curve (FIG. 5).
# Sprague-Dawley rats = test: Local perfusion (reverse dialysis) of D-amphetamine in the nucleus accumbens, rats; settings: read-out: EC50 of DA release (extracellular DA levels)
# Description: Extracellular DA levels are expressed in percent of basal DA values (3.50±0.021 and 4.71±0.015 pg DA per 20 minutes for mice and rats, respectively).
# Rats were anesthetised with sodium pentobarbital (60 mg/kg; Sanofi Santé Animale, France). A unilateral permanent cannula (CMA/11 guide cannula, Microdialysis AB, Sweden) was implanted into the nucleus accumbens. The coordinates for the guide cannula tip were antero-posterior (AP): +1.7 relative to bregma, medio-lateral (ML): +1.1, and dorso-ventral (DV): −5.7 mm from dura (Paxinos and Watson, Ann. Rev. Pharmacol. Toxicol. 32:63(−77, 1986). After surgery, animals were placed in individual plastic cages and allowed to recover for at least 4 days.
# The day of the experiment, the microdialysis probe was inserted (CMA/7, Membrane length 2 mm and diameter 0.24 mm, cut-off: 6000 Da, Microdialysis AB, Sweden, for mice or CMA/11 with identical probe characteristics for rats). […]
# (§2) Results presented are means±S.E.M of data obtained with 5 to 9 animals. […] Data from microdialysis experiments were expressed as a percentage of the respective mean basal value to compensate for inter-subject differences. […]
# WT and α1bAR-KO mice [3] = test: Microdialysis: extracellular DA levels in the nucleus accumbens after systemic D-amphetamine
# Description: Mice were anaesthetised with sodium pentobarbital (60 mg/kg; Sanofi Santé Animale, France) and placed in a stereotaxic frame (Kopf instruments). The head was positioned by means of a mouse nose clamp adaptator (Kopf model 922) supplemented by rat ear bars placed lightly in the external auditory meatus. A unilateral permanent cannula (CMA/7 guide cannula, Microdialysis AB, Sweden) was implanted into the nucleus accumbens and was secured on the skull with screw and dental cement. The coordinates for the guide cannula tip were antero-posterior (AP): +1.3 relative to bregma, medio-lateral (ML): +0.8, and dorso-ventral (DV): −2,4 mm from dura (Paxinos and Franklin, The mouse brain in stereotaxic coordinates, Academic Press 2001).
# The day of the experiment, the microdialysis probe was inserted (CMA/7, Membrane length 2 mm and diameter 0.24 mm, cut-off: 6000 Da, Microdialysis AB, Sweden, for mice or CMA/11 with identical probe characteristics for rats). Artificial CSF (in mM: NaCl: 147; KCl: 3.5; CaCl2: 1; MgCl2: 1.2; NaH2PO4: 1; NaHCO3: 25, pH=7.6) was perfused with a CMA100 microinjection pump through the probe at a rate of 1 μl/min (2 μl/min for rats) via FEP catheter (internal diameter 0.12 mm for mice) or polyethylene catheter (internal diameter 0.3 mm for rats) connected to a fluid swivel. Adequate steady state of DA levels in perfusate samples was reached 2 hours and 20 minutes after probe insertion for mice and rats, and samples were collected in 300 μl vials placed into a refrigerated computer-controlled fraction collector (CMA/170). Samples (20 μl every 20-minutes for mice and 10 μl every 5 minutes for rats) were collected during 100 minutes and 30 minutes for mice and rats, respectively, to determine basal extracellular DA values.
# Dialysate samples were completed to 30 μl with the mobile phase and placed into a refrigerated automatic injector (Triathlon, Spark Holland, Emmen, The Netherlands). Twenty five μl of the sample were injected every 15 minutes through a rheodyne valve in the mobile phase circuit. High-performance liquid chromatography was performed with a reverse-phase column (80×4.6 mm, […] particle size, HR-80, ESA INC., Chelmsford, Mass.). Mobile phase (NaH2PO4 75 mM, EDTA 20 μM, octane sulfonic acid 2.75 mM, triethylamine 0.7 mM, acetonitrile 6%, methanol 6%, and pH 5.2) was delivered at 0.7 ml/min by an ESA-580 pump. Electrochemical detection was performed with an ESA coulometric detector (Coulochem II 5100A, with a 5014B analytical cell; Eurosep, Cergy, France). […]
# as §2
# WT and α1bAR-KO mice [4] = test: Locomotor activity after systemic D-amphetamine during microdialysis experiments; settings: 120 minutes after injection
# Description: as §1
# Results presented are means±S.E.M of data obtained with 5 to 9 animals. Statistical analysis was performed using Graph Pad Prism 3.0 software, (San Diego, Calif.). Data from microdialysis experiments were expressed as a percentage of the respective mean basal value to compensate for inter-subject differences. […] LogEC50's were compared after fitting curves with a Student's t-test. Pharmacological treatments correspond to independent groups of animals. Significant differences were set at p<0.05.
# [5] = α1bAR-KO mice, D-amphetamine 3 mg/kg
structure (smiles),measurement,setting,value
"C[C@H](N)Cc1ccccc1.C[C@H](N)Cc1ccccc1.O=S(=O)(O)O [D-amphetamine, D-amphetamine sulfate]","amplitude of locomotor response, α1b-AR KO vs WT mice","WT and α1b-AR KO mice [1]; D-amphetamine 2 and 3 mg/kg, cocaine and morphine independent of dose",significantly lower
same,locomotor activity,WT and α1b-AR KO mice [1]; WT mice,dose-dependent stimulation of locomotor activity
same,locomotor activity,WT and α1b-AR KO mice [1]; α1b-AR KO mice,also increased locomotor activity
same,DA release in WT mice lower than previously found in rats,"C57BL6/J mice; 3 μM D-amphetamine, local perfusion in nucleus accumbens, WT mice vs rats (Darracq et al.)",more than 5 fold
same,EC50,"C57BL6/J mice; C57BL6/J mice, local perfusion in nucleus accumbens, read-out: EC50 of DA release (extracellular DA levels)",15.6 ± 1.1 µM
same,locomotor hyperactivity on local perfusion,"C57BL6/J mice; mice nucleus accumbens, up to 100 μM",did not induce any locomotor hyperactivity
same,rate of sensitization: slope of the number of injections/response curve,"WT and α1b-AR KO mice [2]; WT mice, D-amphetamine 1 mg/kg",179.8±69.1
same,rate of sensitization: slope of the number of injections/response curve,"WT and α1b-AR KO mice [2]; WT mice, D-amphetamine 2 mg/kg",265+71
same,rate of sensitization: slope of the number of injections/response curve,"WT and α1b-AR KO mice [2]; α1b-AR KO mice, D-amphetamine 1 mg/kg",33.4±17.7
same,rate of sensitization: slope of the number of injections/response curve,"WT and α1b-AR KO mice [2]; α1b-AR KO mice, D-amphetamine 2 mg/kg",104.4±31
same,EC50,Sprague-Dawley rats,11.8 ± 1.3 µM
same,extracellular DA levels in the nucleus accumbens,"WT and α1bAR-KO mice [3]; WT mice, D-amphetamine 3 mg/kg i.p.",enhanced extracellular DA levels
same,extracellular DA levels in the nucleus accumbens,"WT and α1bAR-KO mice [3]; WT mice, D-amphetamine 6 mg/kg i.p.",enhanced extracellular DA levels
same,extracellular DA levels in the nucleus accumbens,WT and α1bAR-KO mice [3]; [5],did not modify basal extracellular DA levels
same,mean increase in extracellular DA levels in the nucleus accumbens,"WT and α1bAR-KO mice [3]; α1bAR-KO mice, D-amphetamine 6 mg/kg, vs basal",+25%
same,locomotor hyperactivity,"WT and α1bAR-KO mice [4]; WT mice, D-amphetamine 3 mg/kg",1352±389
same,locomotor hyperactivity,"WT and α1bAR-KO mice [4]; WT mice, D-amphetamine 6 mg/kg",2758±199
same,locomotor hyperactivity,WT and α1bAR-KO mice [4]; [5],219±62
same,locomotor hyperactivity,"WT and α1bAR-KO mice [4]; α1bAR-KO mice, D-amphetamine 6 mg/kg",734±184
